From patent publication EP3329923A1, “THE POTENTIAL OF CRBN-INDEPENDENT IMID RESENSITIZATION BY EPIGENETIC THERAPY” (University of Copenhagen, priority 2016, dated 2018)

Columns and labels:
KMS12-BM [1] = experiment: Cell proliferation, XTT dye absorbance (IC50 of IMiDs); type: cell-based; conditions: Homo sapiens, KMS-12-BM, 72 h, XTT absorbance 3 days after treatment with IMiDs
Text: (§1) A total of seven commercially available human myeloma cell lines (JJN3, OPM2, RPMI-8226, U266, NCI-H929, LP-1, KMS12-BM) were purchased from DSMZ (Leibniz Institute DSMZ-German Collection of Microorganisms and Cell Cultures, Braunschweig, Germany).
(§2) First, the present inventors tested the sensitivity of all HMCL to both lenalidomide and pomalidomide by generating dose-response curves and calculating the IC50 of both drugs for each cell line (given in tables below).

OPM2 = experiment: as above; type: cell-based; conditions: Homo sapiens, OPM-2, 72 h, XTT absorbance 3 days after treatment with IMiDs
Text: as §1, §2

NCI-H929 = experiment: as above; type: cell-based; conditions: Homo sapiens, 72 h, XTT absorbance 3 days after treatment with IMiDs
Text: as §1, §2

U266 = experiment: as above; type: cell-based; conditions: Homo sapiens, U-266, 72 h, XTT absorbance 3 days after treatment with IMiDs
Text: as §1, §2

RPMI-8226 = experiment: as above; type: cell-based; conditions: Homo sapiens, RPMI-8226, 72 h, XTT absorbance 3 days after treatment with IMiDs
Text: as §1, §2

JJN3 [2] = experiment: as above; type: cell-based; conditions: Homo sapiens, JJN-3, 72 h, XTT absorbance 3 days after treatment with IMiDs
Text: as §1, §2

[3] = tested on: all IMiD-resistant cell lines; experiment: Resensitization to IMiDs after 48 hours epidrug pretreatment, apoptosis and cell cycle assays; type: cell-based, human; conditions: epidrug pretreatment for 48 hours, then no treatment vs. 10 µM lenalidomide or pomalidomide; panobinostat as monotherapy or combined with 5-Azacytidine or EPZ-6438
CRBN = CRBN expression by qPCR after epidrug treatment; conditions: OPM2-LR and OPM2-PR, monotherapy and combination (Figure 13A)
EZH2 = EZH2 over EZH1; cited from earlier work
OPM2-PR = experiment: Apoptosis assay (Annexin V and PI), resensitization to IMiDs; conditions: epidrug treatment 48 hours, then 10 µM lenalidomide or 10 µM Pomalidomide for 3 days (Figure 11B)
Protocol: Cell proliferation (and IC50 for each cell line) was assessed by measuring 2,3-Bis-(2-Methoxy-4-Nitro-5-Sulfophenyl)-2H-Tetrazolium-5-Carboxanilide (XTT) dye absorbance 3 days after treatment with IMiDs. Cell apoptosis was evaluated using Annexin V and PI, with the analysis performed on a FACS-Calibur (BD Bioscience).

KMS12-BM [4] = experiment: Apoptosis assay, epigenetic sensitization in intrinsic IMiD resistance; conditions: baseline IMiD resistance (Figure 13C)
Protocol: (§3) Cell apoptosis was evaluated using Annexin V and PI, with the analysis performed on a FACS-Calibur (BD Bioscience).
(§4) The present inventors then went on to examine whether the combination of epidrugs was effective in intrinsically IMiD-resistant cell lines.

JJN3 [5] = experiment: as above; conditions: JJN3, baseline IMiD resistance (Figure 13C)
Protocol: as §3, §4

SMILES	IC50 (KMS12-BM [1]) [µM]	IC50 (OPM2) [µM]	IC50 (NCI-H929) [µM]	IC50 (U266) [µM]	IC50 (RPMI-8226) [µM]	IC50 (JJN3 [2]) [µM]	resensitization to IMiDs (IMiD sensitivity) [3]	expression of CRBN (CRBN)	other results
Nc1cccc2c1C(=O)N(C1CCC(=O)NC1=O)C2=O (centres unmarked) [Pomalidomide]	15.2	2.01	0.003	60.5	98.3	87.3	–	–	–
Nc1ncn([C@@H]2O[C@H](CO)[C@@H](O)[C@H]2O)c(=O)n1 [5-Azacytidine, 4-amino-1-beta-D-ribofuranosyl-1,3,5-triazin-2(1H)-one]	–	–	–	–	–	–	did not restore IMiD sensitivity	remained low and unchanged	–
Nc1cccc2c1CN(C1CCC(=O)NC1=O)C2=O (centres unmarked) [Lenalidomide]	20.8	5.01	0.563	68.1	118	136	–	–	–
Cc1cc(C)c(CNC(=O)c2cc(-c3ccc(CN4CCOCC4)cc3)cc3c2cnn3C2CCCC2)c(=O)[nH]1 [EPZ005687]	–	–	–	–	–	–	–	–	selectivity for EZH2 compared to EZH1 (EZH2): 50 fold
CCN(c1cc(-c2ccc(CN3CCOCC3)cc2)cc(C(=O)NCc2c(C)cc(C)[nH]c2=O)c1C)C1CCOCC1 [EPZ-6438, N-((4,6-dimethyl-2-oxo-1,2-dihydropyridin-3-yl)methyl)-5-(ethyl(tetrahydro-2H-pyran-4-yl)amino)-4-methyl-4'-(morpholinomethyl)-[1,1'-biphenyl]-3-carboxamide]	–	–	–	–	–	–	did not restore IMiD sensitivity	remained low and unchanged	resensitization to lenalidomide and pomalidomide (apoptosis) (OPM2-PR): minor resensitization effect; sensitization to lenalidomide and pomalidomide (KMS12-BM [4]): able to render the cells sensitive to both lenalidomide and pomalidomide; sensitization to lenalidomide and pomalidomide (JJN3 [5]): able to render the cells sensitive to both lenalidomide and pomalidomide
